Assay results reported in patent US9216169B2, “Pharmaceutical composition comprising candesartan or ester thereof and chlortalidone, and use thereof” (TIANJIN INSTITUTE OF PHARMACEUTICAL RESEARCH, priority 2011, dated 2015).

Tested on: Spontaneously hypertensive rats (SHR)
Test: SBP of SHR by Tail-Cuff method, continuous intragastric administration for 8 days (Examples 1-7)
Format: in vivo, rat
Procedure: Spontaneously hypertensive rats (SHR), male, are provided by Beijing Vital River Laboratory Animal Technology Co., Ltd. The number of animal production license is SCXK (Jing) 2007-0001. Animals are raised in an observation room at the room temperature of 25±2° C. controlled by central air-conditioning system and with artificial lighting of 12 h/day. The animals are raised in separate cages sized 43×27×18 cm with 4 animals for each cage. The rats are free access to water and are fed with block fodder everyday, and the water supply is refreshed once a day. The temperature of the room for measuring the blood pressure is 26±2° C.
The blood pressure is measured by Tail-Cuff method and the hear rate is measured according to the pulse frequency. Animals are pre-trained for the blood pressure measurement for more than 2 weeks so as to adapt to the environment of measurement. Animals are placed in a isothermal bag at 37° C. to be prewarmed for 5 to 10 min for formal measurement. Blood pressures of the rats are measured from tail arteries for 2 to 3 times at rest states, and an average value is taken as each blood pressure measured value. All data are collected and preserved by a computer.
SHRs with systolic blood pressures (SBPs) >190 mmHg are selected for experiment.
Rats are randomly divided into 14 groups according to their blood pressures with each group having 7 rats. Animals are fasted overnight and measured for the blood pressure of pre-administration at the day of experiment, and then administered drugs in accordance with the following method:
The single-drug group is intragastrically administered candesartan (Can) or chlorthalidone (Chl), with the dosage of Can of 0.36 mg/kg and the dosages of Chl of 0.0675, 0.36, 0.54, 0.72, 1.125 and 2.25 mg/kg respectively;
The pharmaceutical composition is administered with 6 different doses (denoted by F1, F2, F3, F4, F5 and F6 respectively). Specifically, the ratios of the dosages of Can+Chl in all pharmaceutical compositions are:
The administration volumes are all 5 ml/kg.
Rats are continuously administered for 8 days. SBPs are measured 2, 4, 8, 12 and 24 hours after the last administration. The area under blood pressure reduction-time curve from 0 to 24 h (AUC0-24) and the maximum blood pressure reduction value are calculated.
The calculated results are expressed as mean±standard error ( x±SE); statistical treatment is performed using unpaired t test between groups to compare the significance of the average difference; the interaction between drugs are determined by using factorial analysis of variance, and P<0.05 means the difference has statistical significance.

[1] = Chl 0.0675 mg/kg i.g. 8 days, 2 h after last administration
[2] = Chl 0.0675 mg/kg i.g. 8 days, 4 h after last administration
[3] = Chl 0.0675 mg/kg i.g. 8 days, 8 h after last administration
[4] = Chl 0.0675 mg/kg i.g. 8 days, 12 h after last administration
[5] = Chl 0.0675 mg/kg i.g. 8 days, 24 h after last administration
[6] = Chl 0.0675 mg/kg i.g. 8 days, pre-administration
[7] = Chl 0.36 mg/kg i.g. 8 days (Table 2), 2 h after last administration
[8] = Chl 0.36 mg/kg i.g. 8 days (Table 2), 4 h after last administration
[9] = Chl 0.36 mg/kg i.g. 8 days (Table 2), 8 h after last administration
[10] = Chl 0.36 mg/kg i.g. 8 days (Table 2), 12 h after last administration
[11] = Chl 0.36 mg/kg i.g. 8 days (Table 2), 24 h after last administration
[12] = Chl 0.36 mg/kg i.g. 8 days (Table 2), pre-administration
[13] = Chl 1.125 mg/kg i.g. 8 days, 2 h after last administration
[14] = Chl 1.125 mg/kg i.g. 8 days, 4 h after last administration
[15] = Chl 1.125 mg/kg i.g. 8 days, 8 h after last administration
[16] = Chl 1.125 mg/kg i.g. 8 days, 12 h after last administration
[17] = Chl 1.125 mg/kg i.g. 8 days, 24 h after last administration

**Q.** With `NS(=O)(=O)c1cc(C2(O)NC(=O)c3ccccc32)ccc1Cl` (centres unmarked) [Chl, Chlorthalidone] as the compound, how does the “antihypertensive effect after the administration” value (Chl 0.0675 mg/kg) read?
**A.** Its value is “no significant antihypertensive effect”.

**Q.** And the “AUC0-24h (area under blood pressure reduction-time curve)” value (Chl 0.0675 mg/kg i.g. 8 days)?
**A.** The value was −9.0 mmHg · h.

**Q.** And the “maximum reduction of the blood pressure” value (Chl 0.0675 mg/kg i.g. 8 days)?
**A.** The value was −4.7 mmHg.

**Q.** And the SBP [1]?
**A.** The SBP was 203 mmHg.

**Q.** And the “SBP difference value compared with the basic value” (“SBP difference value” for short) [1]?
**A.** The value was “(−2.1 mmHg”.

**Q.** And the SBP [2]?
**A.** Its SBP is 206 mmHg.

**Q.** And the “SBP difference value” [2]?
**A.** Its value is “(0.6 mmHg”.

**Q.** What about the SBP [3] of the same compound?
**A.** The SBP was 204 mmHg.

**Q.** What about the “SBP difference value” [3] of the same compound?
**A.** Its value is “(−1.4 mmHg”.

**Q.** What about the SBP [4] of the same compound?
**A.** Its SBP is 203 mmHg.

**Q.** What about the “SBP difference value” [4] of the same compound?
**A.** The value was “(−2.0 mmHg”.

**Q.** What about the SBP [5] of the same compound?
**A.** Its SBP is 207 mmHg.

**Q.** And the “SBP difference value” [5]?
**A.** Its value is “(2.1 mmHg”.

**Q.** And the SBP [6]?
**A.** Its SBP is 208 mmHg.

**Q.** And the “SBP difference value” [6]?
**A.** The value was “(2.3 mmHg”.

**Q.** What about the “AUC0-24h (area under blood pressure reduction-time curve)” value (Chl 0.36 mg/kg i.g. 8 days) of the same compound?
**A.** Its value is −26.0 mmHg · h.

**Q.** And the “maximum reduction of the blood pressure” value (Chl 0.36 mg/kg i.g. 8 days)?
**A.** The value was −3.7 mmHg.

**Q.** And the SBP [7]?
**A.** Its SBP is 205 mmHg.

**Q.** And the “SBP difference value” [7]?
**A.** The value was “(−0.6 mmHg”.

**Q.** What about the SBP [8] of the same compound?
**A.** The SBP was 204 mmHg.

**Q.** And the “SBP difference value” [8]?
**A.** Its value is “(−1.3 mmHg”.

**Q.** What about the SBP [9] of the same compound?
**A.** The SBP was 204 mmHg.

**Q.** And the “SBP difference value” [9]?
**A.** The value was “(−1.3 mmHg”.

**Q.** And the SBP [10]?
**A.** Its SBP is 204 mmHg.

**Q.** What about the “SBP difference value” [10] of the same compound?
**A.** The value was “(−1.4 mmHg”.

**Q.** What about the SBP [11] of the same compound?
**A.** Its SBP is 205 mmHg.

**Q.** And the “SBP difference value” [11]?
**A.** Its value is “(−0.4 mmHg”.

**Q.** And the SBP [12]?
**A.** The SBP was 204 mmHg.

**Q.** And the “SBP difference value” [12]?
**A.** Its value is “(−1.4 mmHg”.

**Q.** And the “AUC0-24h (area under blood pressure reduction-time curve)” value (Chl 0.54 mg/kg i.g. 8 days)?
**A.** The value was −57.0 mmHg · h.

**Q.** And the “maximum reduction of the blood pressure” value (Chl 0.54 mg/kg i.g. 8 days)?
**A.** Its value is −4.7 mmHg.

**Q.** And the “AUC0-24h (area under blood pressure reduction-time curve)” value (Chl 0.72 mg/kg i.g. 8 days)?
**A.** The value was −79.0 mmHg · h.

**Q.** And the “maximum reduction of the blood pressure” value (Chl 0.72 mg/kg i.g. 8 days)?
**A.** Its value is −5.7 mmHg.

**Q.** What about the “time after administration at which an antihypertensive effect is seen” value (Chl 1.125 mg/kg) of the same compound?
**A.** Its value is 4 h.

**Q.** What about the “AUC0-24h (area under blood pressure reduction-time curve)” value (Chl 1.125 mg/kg i.g. 8 days) of the same compound?
**A.** Its value is −110.0 mmHg · h.

**Q.** And the “maximum reduction of the blood pressure” value (Chl 1.125 mg/kg i.g. 8 days)?
**A.** The value was −12.0 mmHg.

**Q.** What about the SBP [13] of the same compound?
**A.** Its SBP is 205 mmHg.

**Q.** What about the “SBP difference value” [13] of the same compound?
**A.** The value was “(−2.9 mmHg”.

**Q.** And the SBP [14]?
**A.** Its SBP is 199 mmHg.

**Q.** And the “SBP difference value” [14]?
**A.** The value was “(−8.9 mmHg”.

**Q.** And the SBP [15]?
**A.** The SBP was 201 mmHg.

**Q.** And the “SBP difference value” [15]?
**A.** Its value is “(−6.3 mmHg”.

**Q.** And the SBP [16]?
**A.** Its SBP is 202 mmHg.

**Q.** What about the “SBP difference value” [16] of the same compound?
**A.** The value was “(−6.0 mmHg”.

**Q.** What about the SBP [17] of the same compound?
**A.** Its SBP is 207 mmHg.

**Q.** What about the “SBP difference value” [17] of the same compound?
**A.** Its value is “(−0.4 mmHg”.

**Q.** What about the SBP (Chl 1.125 mg/kg i.g. 8 days, pre-administration) of the same compound?
**A.** Its SBP is 206 mmHg.
